Measured values taken from the supplement of paper PMC10307832.

Tests used:
Experiment in all cases: relative viability (nuclei count vs DMSO), 5 days (fraction); higher = more cells survive
[1] = system: COR-L 105
Procedure, shortened: (§1)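 Lung cancer cell lines were pin-tool dosed in 1536-well plates on the day after seeding, with either a lone drug or a fixed anchor-drug dose plus five library-drug doses (not always all listed) in √10 steps. Nuclei were counted on 4× images after 5 days. Relative viability is the ratio of treated-well to vehicle-well nuclei counts, with each value a median of duplicate plates.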

[2] = system: COR-L23
Procedure, shortened: as §1

[3] = system: HARA
Procedure, shortened: as §1

[4] = system: HCC-15
Procedure, shortened: as §1

[5] = system: HOP-62
Procedure, shortened: as §1

[6] = system: NCI-H1355
Procedure, shortened: as §1

[7] = system: NCI-H1395
Procedure, shortened: as §1

[8] = system: NCI-H1734
Procedure, shortened: as §1

[9] = system: NCI-H1755
Procedure, shortened: as §1

[10] = system: NCI-H1792
Procedure, shortened: as §1

[11] = system: NCI-H1793
Procedure, shortened: as §1

[12] = system: NCI-H1993
Procedure, shortened: as §1

[13] = system: NCI-H2009
Procedure, shortened: as §1

[14] = system: NCI-H2170
Procedure, shortened: as §1

[15] = system: NCI-H2228
Procedure, shortened: as §1

[16] = system: NCI-H2347
Procedure, shortened: as §1

[17] = system: NCI-H358
Procedure, shortened: as §1

[18] = system: NCI-H647
Procedure, shortened: as §1

[19] = system: NCI-H838
Procedure, shortened: as §1

[20] = system: SK-MES-1
Procedure, shortened: as §1

[21] = system: UMC-11
Procedure, shortened: as §1

O=c1cc(-c2cccc3c2Sc2ccccc2S3)oc(N2CCOCC2)c1 + CS(=O)(=O)N1CCN(Cc2cc3nc(-c4cccc5[nH]ncc45)nc(N4CCOCC4)c3s2)CC1 [Pictilisib] (partner 1 µM)
relative viability ([1]; first compound 0.08 µM): 0.502
relative viability ([1]; first compound 0.253 µM): 0.441
relative viability ([1]; first compound 0.8 µM): 0.362
relative viability ([1]; first compound 2.53 µM): 0.338
relative viability ([1]; first compound 8 µM): 0.408
relative viability ([2]; first compound 0.08 µM): 0.92
relative viability ([2]; first compound 0.253 µM): 1.36
relative viability ([2]; first compound 0.8 µM): 0.934
relative viability ([2]; first compound 2.53 µM): 0.705
relative viability ([2]; first compound 8 µM): 1.06
relative viability ([3]; first compound 0.08 µM): 0.368
relative viability ([3]; first compound 0.253 µM): 0.378
relative viability ([3]; first compound 0.8 µM): 0.419
relative viability ([3]; first compound 2.53 µM): 0.384
relative viability ([3]; first compound 8 µM): 0.627
relative viability ([4]; first compound 0.08 µM): 0.732
relative viability ([4]; first compound 0.253 µM): 0.858
relative viability ([4]; first compound 0.8 µM): 0.797
relative viability ([4]; first compound 2.53 µM): 0.674
relative viability ([4]; first compound 8 µM): 0.793
relative viability ([5]; first compound 0.08 µM): 0.782
relative viability ([5]; first compound 0.253 µM): 1.02
relative viability ([5]; first compound 0.8 µM): 0.89
relative viability ([5]; first compound 2.53 µM): 0.831
relative viability ([5]; first compound 8 µM): 0.779
relative viability ([6]; first compound 0.08 µM): 0.457
relative viability ([6]; first compound 0.253 µM): 0.456
relative viability ([6]; first compound 0.8 µM): 0.362
relative viability ([6]; first compound 2.53 µM): 0.405
relative viability ([6]; first compound 8 µM): 0.344
relative viability ([7]; first compound 0.08 µM): 0.634
relative viability ([7]; first compound 0.253 µM): 0.602
relative viability ([7]; first compound 0.8 µM): 0.534
relative viability ([7]; first compound 2.53 µM): 0.579
relative viability ([7]; first compound 8 µM): 1.05
relative viability ([8]; first compound 0.08 µM): 0.443
relative viability ([8]; first compound 0.253 µM): 0.564
relative viability ([8]; first compound 0.8 µM): 0.465
relative viability ([8]; first compound 2.53 µM): 0.351
relative viability ([8]; first compound 8 µM): 0.578
relative viability ([9]; first compound 0.08 µM): 0.369
relative viability ([9]; first compound 0.253 µM): 0.489
relative viability ([9]; first compound 0.8 µM): 0.481
relative viability ([9]; first compound 2.53 µM): 0.431
relative viability ([9]; first compound 8 µM): 0.444
relative viability ([10]; first compound 0.253 µM): 0.257
relative viability ([10]; first compound 0.8 µM): 0.223
relative viability ([10]; first compound 2.53 µM): 0.277
relative viability ([10]; first compound 8 µM): 0.238
relative viability ([11]; first compound 0.08 µM): 0.185
relative viability ([11]; first compound 0.253 µM): 0.301
relative viability ([11]; first compound 0.8 µM): 0.303
relative viability ([11]; first compound 2.53 µM): 0.303
relative viability ([11]; first compound 8 µM): 0.334
relative viability ([12]; first compound 0.08 µM): 0.942
relative viability ([12]; first compound 0.253 µM): 0.759
relative viability ([12]; first compound 0.8 µM): 0.894
relative viability ([12]; first compound 2.53 µM): 0.846
relative viability ([12]; first compound 8 µM): 0.805
relative viability ([13]; first compound 0.08 µM): 0.813
relative viability ([13]; first compound 0.253 µM): 0.962
relative viability ([13]; first compound 0.8 µM): 0.968
relative viability ([13]; first compound 2.53 µM): 0.728
relative viability ([13]; first compound 8 µM): 0.745
relative viability ([14]; first compound 0.08 µM): 0.31
relative viability ([14]; first compound 0.253 µM): 0.342
relative viability ([14]; first compound 0.8 µM): 0.312
relative viability ([14]; first compound 2.53 µM): 0.287
relative viability ([14]; first compound 8 µM): 0.275
relative viability ([15]; first compound 0.08 µM): 0.434
relative viability ([15]; first compound 0.253 µM): 0.424
relative viability ([15]; first compound 0.8 µM): 0.296
relative viability ([15]; first compound 2.53 µM): 0.484
relative viability ([15]; first compound 8 µM): 0.378
relative viability ([16]; first compound 0.08 µM): 0.633
relative viability ([16]; first compound 0.253 µM): 0.952
relative viability ([16]; first compound 0.8 µM): 0.567
relative viability ([16]; first compound 2.53 µM): 0.733
relative viability ([16]; first compound 8 µM): 0.476
relative viability ([17]; first compound 0.08 µM): 0.311
relative viability ([17]; first compound 0.253 µM): 0.328
relative viability ([17]; first compound 0.8 µM): 0.351
relative viability ([17]; first compound 2.53 µM): 0.269
relative viability ([17]; first compound 8 µM): 0.33
relative viability ([18]; first compound 0.08 µM): 0.341
relative viability ([18]; first compound 0.253 µM): 0.499
relative viability ([18]; first compound 0.8 µM): 0.365
relative viability ([18]; first compound 8 µM): 0.603
relative viability ([19]; first compound 0.08 µM): 0.415
relative viability ([19]; first compound 0.253 µM): 0.643
relative viability ([19]; first compound 0.8 µM): 0.372
relative viability ([19]; first compound 2.53 µM): 0.426
relative viability ([19]; first compound 8 µM): 0.408
relative viability ([20]; first compound 0.08 µM): 0.373
relative viability ([20]; first compound 0.253 µM): 0.396
relative viability ([20]; first compound 0.8 µM): 0.338
relative viability ([20]; first compound 2.53 µM): 0.407
relative viability ([20]; first compound 8 µM): 0.474
relative viability ([21]; first compound 0.08 µM): 0.815
relative viability ([21]; first compound 0.253 µM): 1.09
relative viability ([21]; first compound 0.8 µM): 0.992
relative viability ([21]; first compound 2.53 µM): 0.752
relative viability ([21]; first compound 8 µM): 1
